Source: patent US10184115B2, “Mutated cellobiose dehydrogenase with increased substrate specificity” (DIRECTSENS GMBH, priority 2012, dated 2019)

Biological target: T1, Myriococcum thermophilum cellobiose dehydrogenase (CDH), recombinant wild type, SEQ ID NO: 1 (Thermothelomyces myriococcoides, UniProt A9XK88)
T1 sequence (A9XK88 22-828): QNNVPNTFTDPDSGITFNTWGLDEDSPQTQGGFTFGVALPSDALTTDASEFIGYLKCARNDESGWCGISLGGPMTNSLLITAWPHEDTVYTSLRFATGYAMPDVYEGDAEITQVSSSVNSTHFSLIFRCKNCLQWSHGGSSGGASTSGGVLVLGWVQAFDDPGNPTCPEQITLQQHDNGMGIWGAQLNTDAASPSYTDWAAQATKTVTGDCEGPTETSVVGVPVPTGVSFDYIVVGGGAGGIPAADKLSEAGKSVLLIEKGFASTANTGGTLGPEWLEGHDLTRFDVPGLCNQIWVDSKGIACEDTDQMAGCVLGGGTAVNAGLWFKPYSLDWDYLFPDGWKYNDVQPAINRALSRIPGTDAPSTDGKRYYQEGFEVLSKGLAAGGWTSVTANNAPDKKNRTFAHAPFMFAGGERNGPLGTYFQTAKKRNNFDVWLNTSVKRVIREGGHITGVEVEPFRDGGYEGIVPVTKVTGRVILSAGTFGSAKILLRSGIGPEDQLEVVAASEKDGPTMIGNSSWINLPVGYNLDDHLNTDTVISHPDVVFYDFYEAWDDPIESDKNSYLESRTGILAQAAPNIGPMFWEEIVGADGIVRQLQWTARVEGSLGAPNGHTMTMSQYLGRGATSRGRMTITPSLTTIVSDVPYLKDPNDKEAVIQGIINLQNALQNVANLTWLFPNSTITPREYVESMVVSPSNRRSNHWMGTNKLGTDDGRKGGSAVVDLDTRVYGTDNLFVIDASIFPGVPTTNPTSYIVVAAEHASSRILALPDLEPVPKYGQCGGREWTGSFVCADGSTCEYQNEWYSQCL
Assay: Steady-state kinetics, DCIP assay: M. thermophilum CDH wt
Assay type: biochemical
Settings: apparent, pH 4.5, 30° C.
Procedure: Enzyme activity was assayed at 30° C. using either the DCIP (Karapetyan et al., 2005 Journal of Biotechnology 121: 34-48) or cytochrome c (Canevascini et al., 1991, European Journal of Biochemistry 198: 43-52) as electron acceptor. […] Stock solutions of carbohydrates used for kinetic measurements were prepared in the respective buffer and allowed to stand overnight for mutarotation, while stock solutions of electron acceptors were prepared in water and immediately used. The reaction stoichiometry is 1 for the two-electron acceptor DCIP (1 mole of DCIP reduced per mole of carbohydrate oxidized), but 2 for the one-electron acceptor cytochrome c. Kinetic constants were calculated by fitting the observed data to the Henri-Michaelis-Menten equation or to the adapted model for substrate inhibition using nonlinear least-squares regression and the program SigmaPlot (Systat Software, San Jose, Calif., USA). […]
Recombinant wild-type CDH as well as variants were produced in 1 L baffled flasks. […] Increase in activity was monitored using the DCIP and the cytochrome c enzyme assays. […]
The sample was loaded on a 20 mL PHE Sepharose FF column (HR26/20) equilibrated with 50 mM Na-acetate buffer pH 5.5 containing 20% ammonium sulfate. […] Fractions were tested for CDH activity and pooled according to the highest Reinheitszahl (RZ, calculated from the absorbance ratio 420 nm/280 nm). […]

**Q.** What does the source list for `OC[C@H]1OC(O)[C@H](O)[C@@H](O)[C@@H]1O` (some centres unmarked) [Glucose, glucose]?
**A.** kcat: 4.8 s⁻¹; kcat/KM: 12 M⁻¹ s⁻¹
